This is an account of results in ChEMBL document CHEMBL1155201, “Structure-activity studies on seco-pancratistatin analogs: potent inhibitors of human cytochrome P450 3A4” (Bioorg Med Chem Lett, 2009).

The structures appear in SMILES notation.

T1 sequence (P08684 whole entry): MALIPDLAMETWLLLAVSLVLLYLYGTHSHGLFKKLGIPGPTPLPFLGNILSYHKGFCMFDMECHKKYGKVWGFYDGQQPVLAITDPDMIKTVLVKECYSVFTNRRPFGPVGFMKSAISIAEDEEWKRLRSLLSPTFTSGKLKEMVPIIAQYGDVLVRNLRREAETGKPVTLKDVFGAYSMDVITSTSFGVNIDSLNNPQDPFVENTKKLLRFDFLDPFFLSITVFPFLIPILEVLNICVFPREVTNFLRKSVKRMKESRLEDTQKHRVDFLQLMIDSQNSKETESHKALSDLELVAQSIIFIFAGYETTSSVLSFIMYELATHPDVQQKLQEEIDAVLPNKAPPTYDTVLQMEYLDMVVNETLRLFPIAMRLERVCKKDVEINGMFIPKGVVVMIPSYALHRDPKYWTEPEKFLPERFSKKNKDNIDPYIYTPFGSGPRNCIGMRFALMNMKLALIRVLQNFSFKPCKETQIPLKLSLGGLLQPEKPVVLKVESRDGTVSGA

One series has as its target T1, Cytochrome P450 3A4 (Homo sapiens, UniProt P08684). The series can be described thus: Inhibition of human recombinant CYP3A4 assessed as biotransformation of 7-benzyloxyquinoline to 7-hydroxyquinoline measured every 15 mins by fluorescence intensity analysis. Format: ADME.
Details: not given; call rule not given here
For `COCO[C@@H]([C@@H]1OC(C)(C)O[C@H]1COC(C)=O)[C@@H](CNC(=O)c1ccccc1)c1ccc2c(c1)OCO2`, the Ki is 1.01 µM. Still for that read-out and setting: with `COCO[C@@H]([C@@H]1OC(C)(C)O[C@H]1CO[Si](C)(C)C(C)(C)C)[C@@H](CNC(=O)c1ccccc1)c1ccc2c(c1)OCO2` the figure was 0.03 µM; with `COCO[C@@H]([C@@H]1OC(C)(C)O[C@H]1COS(=O)(=O)c1ccc(C)cc1)[C@@H](CNC(=O)c1ccccc1)c1ccc2c(c1)OCO2`, 0.07 µM. `CC1(C)O[C@@H]([C@H](O)[C@@H](CNC(=O)c2ccccc2)c2ccc3c(c2)OCO3)[C@H](CO[Si](C)(C)C(C)(C)C)O1`: the Ki is 0.17 µM.

For the compound `COCO[C@@H]([C@@H]1OC(C)(C)O[C@H]1CO)[C@@H](CNC(=O)c1ccccc1)c1ccc2c(c1)OCO2`, the Ki was 1.55 µM. For the compound `COCO[C@@H]([C@@H]1OC(C)(C)O[C@H]1CO[Si](C)(C)C(C)(C)C)[C@@H](CNC(=O)OC(C)(C)C)c1ccc2c(c1)OCO2`, the Ki turned out to be 0.32 µM. As for `COCO[C@@H]([C@@H]1OC(C)(C)O[C@H]1CO[Si](c1ccccc1)(c1ccccc1)C(C)(C)C)[C@@H](CNC(=O)c1ccccc1)c1ccc2c(c1)OCO2`, the Ki was 0.58 µM.

In a further series the target is T1, Cytochrome P450 3A4. The series can be described thus: Inhibition of human recombinant CYP3A4 assessed as biotransformation of 7-benzyloxyquinoline to 7-hydroxyquinoline at 10 uM measured every 15 mins by fluorescence intensity analysis. Type of series: ADME. Conditions: recombinant enzyme, 0.25 h.
For the compound `O=C(NC[C@@H](c1ccc2c(c1)OCO2)[C@@H](O)[C@H](O)[C@@H](O)CO)c1ccccc1`, the “inhibition (INH)” value is recorded as “Not Active”. The same measure, in the same setting: with `CC1(C)O[C@@H]([C@H](O)[C@@H](CNC(=O)c2ccccc2)c2ccc3c(c2)OCO3)[C@H](CO)O1` the entry was “Not Active”. Still for that read-out and setting: with `CC1(C)O[C@@H]([C@H](OC(=O)c2ccccc2)[C@@H](CN=[N+]=[N-])c2ccc3c(c2)OCO3)[C@H](CO[Si](C)(C)C(C)(C)C)O1` the entry was “Not Active”; with `COCO[C@@H]([C@@H]1OC(C)(C)O[C@H]1CO[Si](C)(C)C(C)(C)C)[C@@H](CN=[N+]=[N-])c1ccc2c(c1)OCO2`, “Not Active”.
